Measurements reported in patent publication US20100273835A1, “NOVEL COMPOUNDS” (PROBIODRUG AG, priority 2007, published 2010).

Experiments:
[1] = tested on: beta-amyloid peptides 1-40 and 1-42, U-343 and SH-SY5Y cells; experiment: Beta-amyloid ELISA, secreted beta-amyloid peptides in conditioned medium; type: cell-based; details: Homo sapiens; inhibitor 20 μM, 24 hours; untreated = 100%; FIG. 2: Abeta 1-42, SH-SY5Y cells; read-out: Extracellular Abeta-concentration % of control
Experimental: (§1) The human glioma cell line, U-343 and the human neuroblastoma cell line, SH-SY5Y were maintained in Dulbecco's modified Eagle's medium (DMEM) containing 10% fetal bovine serum (Gibco BRL, Karlsruhe, Germany) and incubated at 37° C. in a 5% CO2 atmosphere. Culture media contained in general 60 μg/ml gentamycin (Gibco BRL, Karlsruhe, Germany).
To quantify intracellular and extracellular concentrations of beta-amyloid peptides, 1-40 and 1-42, U-343 and SH-SY5Y cells were cultured in 6 well plates (1.5×10^6 cells/well) and treated with specific PEP inhibitors (20 μM each) for 24 hours. For quantitation of secreted beta-amyloid peptides the conditioned medium was collected and concentrated by lyophylisation. Likewise, after determination of the cell numbers/well (casy cell counter I, Schärfe System, Reutlingen, Germany), cells were lyzed with cell extraction buffer (Biosource, Solingen, Germany) according to the manufacturer's protocol. The protein concentration was determined by the method of Bradford (1976). Aliquots of 100 μl were used to quantify beta-amyloid peptides 1-40 and 1-42 in quadruplicate by ELISA (IBL, Hamburg, Germany) following the manufacturer's instructions. All obtained intracellular and extracellular concentrations were normalized to cell numbers and protein concentration, respectively.
For the calculation of the concentration of beta-amyloid peptides 1-40 and 1-42 in the cell culture medium after PEP-inhibitor treatment, the basal concentration of beta-amyloid peptides 1-40 and 1-42 in the cell culture medium of untreated cell samples was set to 100%. The results of the measurement of the concentration of beta-amyloid peptides 1-40 and 1-42 with PEP-inhibitor treated cells are presented as % of the untreated cell samples.

[2] = target: T1, Recombinant human prolyl oligopeptidase (Homo sapiens, UniProt P48147); experiment: Determination of IC50- and Ki-values of PEP-inhibitors, chromogenic substrate Cbz-Gly-L-Pro-pNA; type: biochemical; details: for Ki: 4 substrate and 7 inhibitor concentrations, competitive inhibition, pH 7.6, 30° C.; for IC50 / IC50 PEP (M): substrate 0.15 mM, HEPES buffer pH 7.6, 30° C., n.i. means no inhibition
T1 construct: made in house; host or cells: E. coli
T1 sequence (P48147 1-710): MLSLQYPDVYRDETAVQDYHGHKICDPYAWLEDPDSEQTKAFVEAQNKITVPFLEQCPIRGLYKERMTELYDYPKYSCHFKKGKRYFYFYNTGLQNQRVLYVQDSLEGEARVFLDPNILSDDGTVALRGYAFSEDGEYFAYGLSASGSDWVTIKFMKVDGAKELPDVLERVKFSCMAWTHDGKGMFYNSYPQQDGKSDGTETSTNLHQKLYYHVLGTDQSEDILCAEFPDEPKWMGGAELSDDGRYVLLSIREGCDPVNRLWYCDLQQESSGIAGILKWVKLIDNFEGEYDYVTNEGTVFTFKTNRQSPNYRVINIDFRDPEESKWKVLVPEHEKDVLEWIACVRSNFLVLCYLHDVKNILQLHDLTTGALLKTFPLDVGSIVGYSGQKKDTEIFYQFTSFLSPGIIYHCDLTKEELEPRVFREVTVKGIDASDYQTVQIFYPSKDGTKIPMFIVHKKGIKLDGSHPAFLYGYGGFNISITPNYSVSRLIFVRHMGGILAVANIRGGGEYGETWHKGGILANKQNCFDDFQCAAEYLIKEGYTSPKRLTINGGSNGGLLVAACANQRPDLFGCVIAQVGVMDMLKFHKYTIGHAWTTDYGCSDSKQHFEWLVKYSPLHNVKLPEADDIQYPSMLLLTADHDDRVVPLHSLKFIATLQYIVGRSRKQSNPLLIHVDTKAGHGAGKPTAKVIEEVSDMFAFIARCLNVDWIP
Experimental: Recombinant human prolyl oligopeptidase was used for measurement. Recombinant expression was performed in E. coli under standard conditions as described elsewhere in the state of the art.
For activity measurements the chromogenic substrate Cbz-Gly-L-Pro-pNA was used in HEPES buffer pH 7.6 containing 50 mM HEPES, 200 mM NaCl, 1 mM EDTA, 1 mM DTT, 0.006% Brij35. Measurements were carried out at 30° C. Release of pNA were monitored continuously at 405 nm.
IC50 values were calculated using non-linear regression to a 4-parameter equation (Prism 4.0, GraphPad).
For Ki determination 4 substrate (0.15 mM, 0.08 mM 0.04 mM, 0.02 mM) and 7 inhibitor concentrations in an appropriate range were used. Calculations were performed by multiple non-linear regression analysis to the equation for competitive inhibition using GraFit 5.0 Software (Erithacus Software).

[3] = tested on: basal secretion of IL-6, human glial U-343 cells; experiment: IL-6 ELISA, basal secretion of IL-6 into conditioned medium; type: cell-based; details: inhibitor 20 μM, 24 hours, serum-free medium, untreated = 100%, read-out: Extracellular IL-6 concentration, % of untreated cells
Experimental: To analyze basal secretion of IL-6, human glial U-343 cells were cultured in 6 well plates (1.5×10^6 cells/well, Greiner) and treated with specific PEP inhibitors as indicated (20 μM each) for 24 hours in serum-free D-MEM medium (Invitrogen). Aliquots of 40 μl conditioned medium were used to quantify the amount of secreted IL-6 by an human-specific IL-6 ELISA (Biosource) following the manufacturer's instructions. All data were obtained in quadruplicate. For the calculation of the IL-6 concentration in the cell culture medium after PEP-inhibitor treatment, the basal IL-6 concentration of the cell culture medium of untreated cell samples was set to 100%. The results of the measurement of the IL-6 concentration with PEP-inhibitor treated cells are presented as % of the untreated cell samples.
as §1

Row | Compound | activity at 20 µM [1] | Ki [2] | IC50 [2] | activity at 20 µM [3] | IC50 PEP (M) [2]
1 | O=C(c1nc2ccccc2s1)[C@@H]1CCCN1C(=O)OCc1ccccc1 [Example 1, 2-[Cbz-L-Pro]Benzothiazole] | 155% | 980 nM | 7 µM | 40% | 
2 | O=C(N[C@@H](Cc1ccccc1)C(=O)c1nc2ccccc2s1)OCc1ccccc1 [Example 2, 2-[Cbz-L-Phe]Benzothiazole] | 295% |  | > 100 µM | 44% | 
3 | O=C(N[C@@H](Cc1ccccc1)C(=O)c1cccs1)OCc1ccccc1 [Example 3, 2-[Cbz-L-Phe]Thiophene] | 339% |  | 1 µM | 23% | 
4 | O=C(N[C@H](Cc1ccccc1)C(=O)c1nccs1)OCc1ccccc1 [Example 4, 2-[Cbz-D-Phe]Thiazole] | 172% |  |  | 44% | n.i.
5 | O=C(N[C@@H](Cc1ccccc1)C(=O)c1nccs1)OCc1ccccc1 [Example 5, 2-[Cbz-L-Phe]Thiazole] | 193% | 1.15 nM | 0.0012 µM | 29% | 
6 | C[C@H](NC(=O)OCc1ccccc1)C(=O)c1nc2ccccc2s1 [Example 6, 2-[Cbz-L-Ala]Benzothiazole] | 114% |  | 4.5 µM | 36% | 
7 | O=C(N[C@@H](Cc1ccccc1)C(=O)c1ccccn1)OCc1ccccc1 [Example 7, 2-[Cbz-L-Phe]Pyridine] | 236% |  | 39 µM | 31% | 
8 | O=C(N[C@@H](Cc1ccccc1)C(=O)c1cc2ccccc2s1)OCc1ccccc1 [Example 8, 2-[Cbz-L-Phe]Benzo[b]thiophene] | 310% |  |  | 27% | n.i.
9 | O=C(N[C@@H](Cc1ccccc1)C(=O)c1ccccc1)OCc1ccccc1 [Example 9, Cbz-L-Phe-Benzene] | 330% | 1600 nM | 5.2 µM | 18% | 
10 | C[C@H](NC(=O)OCc1ccccc1)C(=O)c1nccs1 [Example 10, 2-[Cbz-L-Ala]Thiazole] | 107% | 2300 nM | 7.1 µM | 78% | 
11 | CC(C)(C)OC(=O)N[C@@H](Cc1ccc([N+](=O)[O-])cc1)C(=O)c1nccs1 [Example 11, 2-[Boc-L-(p-NO2)Phe]Thiazole] | 178% |  | 25 µM | 62% | 
12 | CC(C)(C)OC(=O)N[C@@H](Cc1ccc([N+](=O)[O-])cc1)C(=O)c1ccco1 [Example 12, 2-[Boc-L-(p-NO2)Phe]Furan] | 166% |  | 14 µM | 37% | 
13 | C=CCOC(=O)N[C@@H](Cc1ccccc1)C(=O)c1nc2ccccc2s1 [Example 13, 2-[Aloc-L-Phe]Benzothiazole] | 106% |  |  | 69% | n.i.
14 | C=CCOC(=O)N[C@@H](Cc1ccccc1)C(=O)c1nccs1 [Example 14, 2-[Aloc-L-Phe]Thiazole] | 115% |  |  | 67% | 
15 | C=CCOC(=O)N[C@@H](Cc1ccccc1)C(=O)c1ccco1 [Example 15, 2-[Aloc-L-Phe]Furan] | 116% |  | 10 µM | 78% | 
16 | CC(C)(C)OC(=O)N[C@@H](Cc1c[nH]c2ccccc12)C(=O)c1nc2ccccc2s1 [Example 16, 2-[Boc-L-Trp]Benzothiazole] | 177% |  | 40 µM | 23% | 
17 | CC(C)(C)OC(=O)N[C@@H](Cc1c[nH]c2ccccc12)C(=O)c1nccs1 [Example 17, 2-[Boc-L-Trp]Thiazole] | 143% |  | 94 µM | 38% | 
18 | CC(C)(C)OC(=O)N[C@@H](Cc1c[nH]c2ccccc12)C(=O)c1ccco1 [Example 18, 2-[Boc-L-Trp]Furan] | 163% |  | 14 µM | 24% | 
19 | O=C(/C=C/c1ccccc1)N[C@@H](Cc1ccccc1)C(=O)c1nccs1 [Example 19, 2-[Cinnamoyl-L-Phe]Thiazole] | 230% |  |  | 58% | n.i.
20 | CC(C)C[C@H](NC(=O)OC(C)(C)C)C(=O)c1nc2ccccc2s1 [Example 20, 2-[Boc-L-Leu]Benzothiazole] | 375% |  |  | 63% | 
21 | CC(C)(C)OC(=O)N[C@@H](Cc1ccc([N+](=O)[O-])cc1)C(=O)c1nc2ccccc2s1 [Example 21, 2-[Boc-L-(p-NO2)Phe]Benzothiazole] | 311% |  |  | 96% | n.i.
22 | CC(C)(C)OC(=O)N[C@@H](Cc1ccc(I)cc1)C(=O)c1ccco1 [Example 22, 2-[Boc-L-(p-Iodo)Phe]Furan] | 232% |  |  | 50% | n.i.
23 | CC(C)(C)OC(=O)N[C@@H](Cc1ccc(I)cc1)C(=O)c1nccs1 [Example 23, 2-[Boc-L-(p-Iodo)Phe]Thiazole] | 210% |  |  | 41% | n.i.
24 | CC(C)(C)OC(=O)N1CCC[C@H]1C(=O)c1nc2ccccc2s1 [Example 24, 2-[Boc-L-Pro]Benzothiazole] | 136% |  |  | 26% | 
25 | CC(C)(C)OC(=O)N1CCC[C@H]1C(=O)c1nccs1 [Example 25, 2-[Boc-L-Pro]Thiazole] | 111% | 2300 nM | 7.3 µM | 59% | 
26 | CC(C)(C)OC(=O)N[C@@H](Cc1ccccc1)C(=O)c1nccs1 [Example 26, 2-[Boc-L-Phe]Thiazole] | 168% | 52000 nM | 77 µM | 66% | 
